{
  "source": "paper PMC9424235",
  "about": "“Small molecule-mediated allosteric activation of the base excision repair enzyme 8-oxoguanine DNA glycosylase and its impact on mitochondrial function” (Scientific Reports, 2022)",
  "key": {"OGG1": {"tested_on": "OGG1", "parameters": "method as in PMID 12592398", "settings": "cited from earlier work"}, "human OGG1": {"biological_target": "human OGG1 (Homo sapiens, UniProt O15527)", "sequence (O15527 12-345)": "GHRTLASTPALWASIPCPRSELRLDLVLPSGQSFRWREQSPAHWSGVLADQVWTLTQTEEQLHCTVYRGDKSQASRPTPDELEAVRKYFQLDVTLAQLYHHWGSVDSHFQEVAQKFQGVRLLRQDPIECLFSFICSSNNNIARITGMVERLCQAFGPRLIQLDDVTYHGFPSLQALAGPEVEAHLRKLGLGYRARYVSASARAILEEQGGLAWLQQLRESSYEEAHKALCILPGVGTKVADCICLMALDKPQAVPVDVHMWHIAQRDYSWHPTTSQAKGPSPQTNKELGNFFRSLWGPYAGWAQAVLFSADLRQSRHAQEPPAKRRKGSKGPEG", "experiment": "Fluorescent steady-state kinetic assay of OGG1 activation (initial rates; screening concentration response)"}, "A549 cells [1]": {"tested_on": "A549 cells", "experiment": "ROS production with CM-H2DCFDA (DCF) imaging", "assay_type": "cell-based, human", "settings": "for EC50: Homo sapiens"}, "A549 cells [2]": {"tested_on": "A549 cells", "experiment": "Mitochondrial ROS with MitoSOX", "assay_type": "cell-based, human"}, "A549 cells [3]": {"tested_on": "A549 cells", "experiment": "Nuclear DNA damage by γ-H2AX staining", "assay_type": "cell-based, human"}, "A549 cells [4]": {"tested_on": "A549 cells", "experiment": "Mitochondrial membrane integrity (MitoTracker orange texture analysis)", "assay_type": "cell-based, human", "settings": "24 h"}, "A549 cells [5]": {"tested_on": "A549 cells", "experiment": "mtDNA damage by long/short chain PCR", "assay_type": "cell-based, human", "settings": "PQ 0.3–3 mM"}, "A549 cells [6]": {"tested_on": "A549 cells", "experiment": "Measurement of energy metabolites (ATP, ADP)", "assay_type": "cell-based, human"}, "A549 cells [7]": {"tested_on": "A549 cells", "experiment": "TOM20 immunofluorescence", "assay_type": "cell-based, human", "settings": "0.3 mM PQ, 48 h"}, "A549 cells [8]": {"tested_on": "A549 cells", "experiment": "DRP1 content by quantitative imaging", "assay_type": "cell-based, human", "settings": "0.6 mM PQ, 48 h"}, "A549 cells [9]": {"tested_on": "A549 cells", "experiment": "DNA ligase III (LIG3) protein content by imaging", "assay_type": "cell-based, human", "settings": "48 h of PQ at either 0.6 or 1 mM"}, "A549 cells [10]": {"tested_on": "A549 cells", "experiment": "OGG1 content by imaging", "assay_type": "cell-based, human", "settings": "0.6 mM PQ, N = 1 in triplicate"}, "[11]": {"settings": "initial rate analysis, random mechanism"}},
  "note": "Several values for one entry are separate records, joined by “and”; a condition that tells them apart may be missing. Equal values may be shown once.",
  "data": [
    {"smiles": "Nc1nc2nc(N)[nH]c2c(=O)[nH]1", "note": "[Compound 8-aminoGua, 8-aminoguanine]", "values": [
      {"measurement": "acceleration / activation level of AP lyase activity", "setting": "OGG1", "value": "> 35", "unit": "fold"},
      {"measurement": "substrate turnover", "setting": "OGG1", "value": 72, "unit": "%"}
    ]},
    {"smiles": "Nc1nc2cc[nH]c2c(=O)[nH]1", "note": "[Compound 9-deazaGua, 9-deazaguanine]", "values": [
      {"measurement": "β value as percent of catalytic activity of OGG1 in the presence of 8-bromoGua", "setting": "human OGG1", "value": 50, "unit": "%"},
      {"measurement": "OGG1 initial rate relative to that in the presence of 200 μM 8-bromoGua", "setting": "human OGG1; 200 μM activator, substrate 80 nM", "value": "~ 25%"},
      {"measurement": "Km", "setting": "human OGG1; initial rate analysis with activator and Substrate A varied, OGG1 10 nM", "value": "0.015 ± 0.003", "unit": "µM"},
      {"measurement": "kcat", "setting": "human OGG1; initial rate analysis with activator and Substrate A varied, OGG1 10 nM, random mechanism fit", "value": "0.006 ± 0.001 s⁻¹ and 0.006 ± 1 s⁻¹"},
      {"measurement": "α (coefficient of interaction between activator and substrate)", "setting": "human OGG1; [11]", "value": "1.3 ± 0.4"},
      {"measurement": "β (factor of kcat activation)", "setting": "human OGG1; [11]", "value": "18 ± 3"}
    ]},
    {"smiles": "C[n+]1ccc(-c2cc[n+](C)cc2)cc1.[Cl-].[Cl-]", "note": "[Paraquat, N, N′-dimethyl-4,4′-bipyridinium dichloride]", "values": [
      {"measurement": "maximum ROS (DCF) over baseline", "setting": "A549 cells [1]; 0.6 mM, 48 h", "value": 30, "unit": "fold"},
      {"measurement": "maximum ROS (DCF) over baseline", "setting": "A549 cells [1]; 3 mM, 24 h", "value": 30, "unit": "fold"},
      {"measurement": "EC50", "setting": "A549 cells [1]; A549, 24 h", "value": 1600, "unit": "µM"},
      {"measurement": "EC50", "setting": "A549 cells [1]; A549, 48 h", "value": 340, "unit": "µM"},
      {"measurement": "maximal mitochondrial ROS signal intensity (MitoSOX)", "setting": "A549 cells [2]; 3 mM", "value": 1.75, "unit": "fold"},
      {"measurement": "EC50", "setting": "A549 cells [2]; Homo sapiens, A549, 24 h of exposure", "value": 280, "unit": "µM"},
      {"measurement": "rise in γH2AX (nuclear DNA damage)", "setting": "A549 cells [3]", "value": 2, "unit": "fold"},
      {"measurement": "concentration giving maximum effect on mitochondrial membrane integrity", "setting": "A549 cells [4]", "value": 3000, "unit": "µM"},
      {"measurement": "concentration giving maximal mtDNA damage", "setting": "A549 cells [5]", "value": 600, "unit": "µM"},
      {"measurement": "ATP levels", "setting": "A549 cells [6]; 24 h with PQ, concentrations not given at the place, listed as PQ", "value": "3.13 ± 0.14 μmol/gm protein and 2.49 ± 0.67 μmol/gm protein and 1.99 ± 0.45 μmol/gm protein"},
      {"measurement": "ADP levels", "setting": "A549 cells [6]; PQ 3 mM, 48 h, time-course experiment", "value": "68.69 ± 1.47", "unit": "μmol/gm protein"},
      {"measurement": "ATP Average", "setting": "A549 cells [6]; paraquat 0.3 mM alone, 48 h", "value": "2.56 µmols/g protein and 2.83 µmols/g protein and 1.89 µmols/g protein"},
      {"measurement": "ATP Average", "setting": "A549 cells [6]; paraquat 0.6 mM alone, 48 h", "value": "1.43 µmols/g protein and 1.67 µmols/g protein and 1.19 µmols/g protein"},
      {"measurement": "ATP Average", "setting": "A549 cells [6]; paraquat 1 mM alone, 48 h", "value": "1.47 µmols/g protein and 0.92 µmols/g protein and 1.02 µmols/g protein"},
      {"measurement": "ADP Average", "setting": "A549 cells [6]; paraquat 3 mM alone, 48 h", "value": "40.48 µmols/g protein and 41.33 µmols/g protein and 53.45 µmols/g protein"},
      {"measurement": "ATP Average", "setting": "A549 cells [6]; paraquat 3 mM alone, 48 h", "value": "0.96 µmols/g protein and 0.61 µmols/g protein and 0.63 µmols/g protein"},
      {"measurement": "ATP Average", "setting": "A549 cells [6]; paraquat 3 mM alone, 48 h, listed as PQ", "value": "0.63 ± 0.05 µmols/g protein and 0.96 ± 0.10 µmols/g protein and 0.61 ± 0.09 µmols/g protein"},
      {"measurement": "TOM20 immunofluorescence increase above baseline", "setting": "A549 cells [7]", "value": "~25", "unit": "%"},
      {"measurement": "decline of DRP1 content compared to control", "setting": "A549 cells [8]", "value": "about 24 ± 0.02%"},
      {"measurement": "decline of LIG3 levels", "setting": "A549 cells [9]", "value": "about 50%"},
      {"measurement": "increase of OGG1 content above baseline", "setting": "A549 cells [10]", "value": 88.3, "unit": "%"}
    ]}
  ]
}
